Molecules are shown by their SMILES. Like-named read-outs stand apart in the source and are kept apart here. *1 amine or outer side, *2 acyl side, *3 side chain or, on linkers, in order; H or OH if unused. Where a SMILES comes first, the peptide text is derived from it. Bridges are numbered along the chain shown (N, C = ends). [ ]: non-standard residue; d: D form. Adda = CO[C@@H](Cc1ccccc1)[C@@H](C)/C=C(C)/C=C/[C@H](N[*:1])[C@H](C)C(=O)[*:2]; dAsp(3S-Me) = C[C@H](C(=O)[*:3])[C@@H](N[*:1])C(=O)[*:2]; d(γGlu) = O=C(O)[C@@H](CCC(=O)[*:2])N[*:1]; hTyr = N[C@@H](CCc1ccc(O)cc1)C(=O)O; NMeA = CN[C@@H](C)C(=O)O; NMeDha = C=C(NC)C(=O)O; CO = O=C([*:1])[*:2]

These results are taken from publication PMC11436104 (Toxins, 2024).

Experiment [1] deals with NHAs (normal human astrocytes). Put plainly: MTT metabolic activity / cell viability. The format is cell-based. As for the experimental part: Normal human astrocytes (NHAs; Lonza, Walkersville, MD, USA) were grown and maintained in monolayer cultures in Dulbecco’s modified Eagle’s medium (DMEM; Sigma) supplemented with 10% fetal bovine serum (Euroclone, Pero, MI, Italy), 1% penicillin/streptomycin (Euroclone), 2 mM L-glutamine (Euroclone), and 20 mM Hepes (Invitrogen, Carlsbad, CA, USA). The U87-MG human glioblastoma cells (U87-MG cells; American Type Culture Collection, Manassas, VA, USA) were grown and maintained in monolayer cultures in DMEM supplemented with 10% fetal bovine serum, 1% penicillin/streptomycin, 4 mM L-glutamine, and 1% non-essential amino acids (Sigma).
Cell viability was determined using the 3-(4,5-dimethylthiazolyl-2)-2,5-diphenyltetrazolium bromide (MTT) assay, as according to Mosmann. This assay measures the conversion of MTT to its insoluble formazan by the dehydrogenase enzymes of the intact mitochondria of living cells. […]; Nunclon; Nunc, Naperville, IL, USA) and incubated for 16 h at 37 °C for attachment. The cell-growth medium was then replaced by fresh medium containing 0, 0.1, 1, and 10 µM of each CCP and incubated for an additional 24 h. These experiments were performed without using dimethylsulphoxide to best retain the original permeability of the cell membranes. Each experiment included the negative control of cell-growth medium with no additions. Following incubation (CO2 incubator), 20 μL 5 mg/mL MTT was added to each well. The plates were incubated for another 3 h. […] The amount of formazan, which is proportional to the metabolic activity of cells, was quantified spectrophotometrically at 570 nm (reference filter wavelength, 690 nm) using a microplate reader (Synergy MX; BioTek, Winooski, VT, USA). The metabolic activity of the cells was determined by comparing the optical densities of the CCP-treated cells with those of the negative control. Five replicates per concentration and three independent experiments were performed. Student’s t-tests were used to analyze the differences between the treated and control cells using Prism 5 software (GraphPad, Inc., La Jolla, CA, USA), where p < 0.05 was considered to be statistically significant.

The test system of experiment [2] is U87-MG cells. Description: Cytoskeleton immunostaining (microfilaments, microtubules), confocal microscopy. As to conditions: 10 µM, 24 h. The format is cell-based, human. As to the method: To determine the influence of the CCPs on actin microfilament and microtubule organization, the cells were labeled with rhodamine-conjugated phalloidin (Molecular Probes, Cat. # R415), and mouse monoclonal anti-bovine α-tubulin antibodies (Molecular Probes Cat. # A11126) and secondary Alexa-488 goat anti-mouse IgG (Molecular Probes Cat. # A-11017), respectively. The cells (3000/well) were plated into 16-well plates (Culture Well Chambered Coverglass for Cell Culture; […].
(§1) The cells in all the experiments were exposed to the CCPs for an additional 24 h in the CO2 incubator at 37 °C in a 5% CO2 atmosphere before they were fixed.
(§2) Fixing and staining. The cells were washed in phosphate-buffered saline (PBS) and fixed in 3.7% paraformaldehyde in either PBS (37 °C, 30 min; for microfilaments, microtubules, nestin) or in ice-cold methanol (4 °C, 10 min; for GFAP, desmoplakin I+II). Then the cells were permeabilized in PBS containing 0.1% Triton X-100 (v/v; Merck, Germany) for 20 min and blocked in 4% bovine serum albumin (Sigma) at room temperature for 10 min. For desmoplakin I+II visualization, the cells were blocked in 10% fetal bovine serum (Sigma) for 60 min without cell permeabilization. Microfilaments were stained with rhodamine-conjugated phalloidin (1:40) for 30 min at room temperature. Microtubules were visualized by immunostaining using an anti-α-tubulin antibody overnight at 4 °C (1:200 in PBS containing Ca^2+, 0.1% [v/v] Tween-20) and the secondary antibodies labeled with Alexa-488 goat anti-mouse IgG (1:1000; 30 min at room temperature). Intermediate filaments were stained using anti-nestin (1:500; overnight at 4 °C) and anti-GFAP (1:500, overnight at 4 °C) antibodies. The anti-nestin-labeled cells were visualized using secondary antibodies labeled with Alexa-488 goat anti-mouse IgG and the anti-GFAP-labeled cells with Alexa-488 anti-rabbit IgG (1:1000 dilution, room temperature, 30 min). Desmoplakin I+II were stained with a mouse anti-desmoplakin I+II antibody (1:500 dilution; room temperature, 60 min) and visualized with Alexa-488 goat anti-mouse IgG (1:1000 dilution; room temperature, 30 min). The cell nuclei were stained with To-Pro-3 (Molecular Probes; 1:1000 dilution; room temperature, 30 min). After each step, the samples were washed three times with PBS. Finally, all the cell preparations were immersed in an antifade reagent (Prolong Gold; Molecular Probes) to prevent photobleaching.
(§3) Microscopy. […] The cell preparations were also examined under light microscopy (Eclipse TE 3000; Nikon, Japan), and the images were recorded under phase contrast and epifluorescence (i.e., B-2A and G-2A filters, respectively).

The test system of experiment [3] is U87-MG cells. Put plainly: Intermediate filament immunostaining (nestin, GFAP), confocal microscopy. The format is cell-based, human. As for the experimental part:
(§4) For the intermediate filaments, visualization at 1 µM MC-LR was used as the positive control. The cells were stained with rabbit monoclonal anti-GFAP (Merck Millipore, Bedford, MA, USA, Cat. # AB5804) and secondary Alexa-488 goat anti-rabbit IgG (Molecular Probes, Cat. # A-11034) antibodies and with mouse monoclonal anti-nestin (Merck Millipore, Cat. # MAB5326) and secondary Alexa-488 goat anti-mouse IgG (Molecular Probes, Cat. # A-11017) antibodies.
as §1, §2, §3

For experiment [4], the system named is NHAs. Description: Cell morphology, light microscopy (phase contrast). The format is cell-based, human. As to conditions: evident already at 1 µM, 24 h, 100× magnification.
Experiment [5] has as its system NHAs. Description: Intermediate filament immunostaining (nestin, GFAP), confocal microscopy. The format is cell-based, human. As to the method:
as §4, §1, §2, §3

With `CC[C@H](C)[C@@H]1NC(=O)[C@H](NC(=O)N[C@@H](CCCNC(=N)N)C(=O)O)CCCCNC(=O)[C@H](Cc2ccccc2)NC(=O)[C@H](C)N(C)C(=O)[C@H](CCc2ccc(O)cc2)NC1=O` [anabaenopeptin F] ({Arg-CO}-[dK]I[hTyr][NMeA]F; lactam 1-C), the “metabolic activity vs control” value in experiment [1] (NHAs, up to 10 µM, 24 h) is recorded as “no significant changes from the control”. Also, the “microfilament (actin) organization” value in experiment [2] is “actin aggregation”.

Regarding `CC[C@H](C)[C@@H]1NC(=O)[C@H](Cc2ccc(OC)cc2)N(C)C(=O)[C@H]([C@@H](C)O)N2C(=O)[C@H](CC[C@H]2O)NC(=O)[C@H](CC(C)C)NC(=O)[C@@H](NC(=O)[C@H](CCC(N)=O)NC(=O)[C@H](CCc2ccc(O)cc2)NC(=O)[C@@H](O)CO)[C@@H](C)OC1=O`, in experiment [3] (U87-MG, 24 h), the GFAP filament organization result was “concentration of the GFAP filaments was observed along the entire cell body”. In addition, in experiment [1] (NHAs, up to 10 µM, 24 h), the “metabolic activity vs control” value was “no significant changes from the control”. The “morphological changes under light microscopy” value in experiment [4] is recorded as “formation of twisted astrocytic outgrowths”. Further, in experiment [2], the “microfilament (actin) organization” value is “aggregation of the cortical microfilaments along the basal membrane and degradation of the membrane ruffles”; the microtubule organization result is “the microtubules were reorganized and concentrated around the nucleus”.

Regarding `CC(C)[C@@H]1NC(=O)[C@H](NC(=O)N[C@@H](CCCNC(=N)N)C(=O)O)CCCCNC(=O)[C@H](Cc2ccccc2)NC(=O)[C@H](C)N(C)C(=O)[C@H](CCc2ccc(O)cc2)NC1=O` [anabaenopeptin B] ({Arg-CO}-[dK]V[hTyr][NMeA]F; lactam 1-C), the “GFAP immunolabeling, cell shape” value in experiment [5] (NHAs, 24 h) was “characteristic twisted outgrowths”. Moreover, the “metabolic activity vs control” value in experiment [1] (NHAs, up to 10 µM, 24 h) was “no significant changes from the control”. Also, the “morphological changes under light microscopy” value in experiment [4] is on record as “formation of twisted astrocytic outgrowths”.

Turning to `C=C1C(=O)N[C@H](C)C(=O)N[C@@H](CC(C)C)C(=O)N[C@@H](C(=O)O)[C@H](C)C(=O)N[C@@H](CCCNC(=N)N)C(=O)N[C@@H](/C=C/C(C)=C/[C@H](C)[C@H](Cc2ccccc2)OC)[C@H](C)C(=O)N[C@@H](C(=O)O)CCC(=O)N1C` [MC-LR, Microcystin-LR, reference compound] (R[Adda][d(γGlu)][NMeDha][dA]L[dAsp(3S-Me)]-OH; lactam N-7), the GFAP filament organization entry in experiment [3] is recorded as “concentration of the GFAP filaments was observed along the entire cell body”. In experiment [5], the nestin organization entry is reported as “most intense nestin concentration”. Also, in experiment [1], the “metabolic activity vs control” value is reported as “significantly decreased”. In experiment [1] (10 µM, read-out: cell viability lower than the control), the cytotoxicity is roughly 20%.
